Biological target: T1, Axl (Homo sapiens, UniProt P30530)
T1 construct: endogenous in cells; host or cells: HeLa cells
T1 sequence (P30530 26-894): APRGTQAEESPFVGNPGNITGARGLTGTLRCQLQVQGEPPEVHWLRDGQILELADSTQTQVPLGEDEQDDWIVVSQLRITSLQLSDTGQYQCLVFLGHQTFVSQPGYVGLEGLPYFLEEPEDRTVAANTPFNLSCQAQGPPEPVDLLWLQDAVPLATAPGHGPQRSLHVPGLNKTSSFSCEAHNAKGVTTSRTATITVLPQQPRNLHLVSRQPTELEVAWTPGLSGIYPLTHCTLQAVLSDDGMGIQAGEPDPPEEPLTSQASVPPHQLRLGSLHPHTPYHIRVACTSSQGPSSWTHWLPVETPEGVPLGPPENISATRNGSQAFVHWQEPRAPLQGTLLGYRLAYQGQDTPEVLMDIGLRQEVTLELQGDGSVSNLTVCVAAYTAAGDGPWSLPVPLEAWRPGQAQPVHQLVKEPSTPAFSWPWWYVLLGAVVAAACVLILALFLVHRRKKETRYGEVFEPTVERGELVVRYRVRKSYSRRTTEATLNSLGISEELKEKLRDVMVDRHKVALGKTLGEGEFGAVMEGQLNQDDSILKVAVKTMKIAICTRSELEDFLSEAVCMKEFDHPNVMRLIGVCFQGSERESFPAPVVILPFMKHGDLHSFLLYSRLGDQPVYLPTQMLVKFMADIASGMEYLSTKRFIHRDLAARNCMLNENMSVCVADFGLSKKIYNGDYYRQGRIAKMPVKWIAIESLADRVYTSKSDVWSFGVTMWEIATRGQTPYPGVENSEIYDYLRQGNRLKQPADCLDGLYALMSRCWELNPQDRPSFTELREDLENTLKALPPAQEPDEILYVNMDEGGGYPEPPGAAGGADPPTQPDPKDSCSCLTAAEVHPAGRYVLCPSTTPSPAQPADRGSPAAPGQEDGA
Test: Phospho-Akt in-cell Western assay (inhibition of Axl activity)
Format: cell-based
In short: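 HeLa cells on poly-L-lysine, starved 24 h in 0.5% FCS DMEM with Axl/Fc 500 ng/mL, pre-treated with compound 1 h at 37° C. Axl stimulated 5 min by anti-Axl/anti-mouse antibody cross-linking. Fixed cells probed with anti-phospho-Akt and HRP secondary, chemiluminescence read.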

[1] = inhibition of Axl activity, Table 1
[2] = Table 3, Hela cells, Axl antibody cross-linking stimulation, phospho-Akt chemiluminescence
[3] = inhibition of Axl activity, phospho-Akt in-cell Western assay, Table 1
[4] = Table 7, Hela cells, Axl antibody cross-linking stimulation, phospho-Akt chemiluminescence
[5] = Table 5, Hela cells, Axl antibody cross-linking stimulation, phospho-Akt chemiluminescence

Q: With `Cc1cccc(C(=O)n2nc(Nc3cccc(OCC(=O)NCCOC4CCCCO4)c3)nc2N)c1` (stereo not drawn) [compound 223] as the compound, how does the IC50 [1] read?
A: Its IC50 is 1000 to 10000 nM.

Q: How did the IC50 [2] turn out when `Nc1nc(Nc2ccc(OCCn3ccnc3)cc2)nn1C(=O)c1ccc2sccc2c1` [compound 377, 5-amino-1-(benzo[b]thiophen-5-yl)carbonyl-3-[4-[2-(imidazol-1-yl)ethoxy]phenylamino]-1H-1,2,4-triazole] was run?
A: Its IC50 is less than 1000 nM.

Q: For `CC(C)Oc1ccc(C(=O)n2nc(Nc3ccccc3)nc2N)cc1` [compound 333, 5-amino-1-(4-(iso-propoxy)phenyl)carbonyl-3-(phenylamino)-1H-1,2,4-triazole], which IC50 [3] is on record?
A: Its IC50 is 1000 to 10000 nM.

Q: Which IC50 [1] does the source give for `COc1ccc(C(=O)n2nc(Nc3ccc4c(c3)OCCO4)nc2N)cc1` [compound 102, 5-amino-3-(1,4-benzodioxan-6-yl)amino-1-(4-(methyloxy)phenyl)carbonyl-1H-1,2,4-triazole] here?
A: The IC50 was 1000 to 10000 nM.

Q: `COc1cccc(NC(=O)n2nc(Nc3ccc(OCCN4CCCCC4)cc3)nc2N)c1` [compound 30, 5-amino-N-(3-methoxyphenyl)-3-[4-[2-(piperidin-1-yl)ethoxy]phenylamino]-1H-1,2,4-triazole-1-carboxamide] was tested. Which IC50 [4] did it give?
A: Its IC50 is less than 1000 nM.

Q: For `CN(C)c1ccc(C(=O)n2nc(Nc3ccc(OCCCN4CCCC4)cc3)nc2N)cc1` [compound #8, 5-Amino-1-(4-(dimethylamino)phenyl)carbonyl-3-[4-[3-(pyrrolidin-1-yl)propoxy]phenylamino]-1H-1,2,4-triazole], which IC50 [3] is on record?
A: The IC50 was less than 1000 nM.

Q: `Cc1cccc(C(=O)n2nc(Nc3ccc(OCCN4CCSCC4)cc3)nc2N)c1` [compound 61] was tested. Which IC50 [1] did it give?
A: The IC50 was 1000 to 10000 nM.

Q: For `Nc1nc(Nc2ccc3c(c2)OCCO3)nn1C(=O)c1cccc(OCc2ccccc2)c1` [compound 156, 5-amino-1-(3-(benzyloxy)phenyl)carbonyl-3-(1,4-benzodioxan-6-yl)amino-1H-1,2,4-triazole], which IC50 [1] is on record?
A: The IC50 was 10000 to 20000 nM.

Q: Which IC50 [1] does the source give for `Nc1nc(Nc2ccc3c(c2)OCCO3)nn1C(=O)c1ccc(OC2CCCC2)cc1` [compound 120] here?
A: The IC50 was greater than 20000 nM.

Q: How did the IC50 [1] turn out when `CC(C)Oc1cccc(C(=O)n2nc(Nc3ccc4c(c3)OCCO4)nc2N)c1` [compound 112, 5-amino-3-(1,4-benzodioxan-6-yl)amino-1-(3-(iso-propoxy)phenyl)carbonyl-1H-1,2,4-triazole] was run?
A: Its IC50 is 1000 to 10000 nM.

Q: Which IC50 [1] does the source give for `Nc1nc(Nc2ccc3c(c2)OCCO3)nn1C(=O)c1cccc(O)c1` [compound 166, 5-amino-3-(1,4-benzodioxan-6-yl)-amino-1-(3-(hydroxy)phenyl)carbonyl-1H-1,2,4-triazole] here?
A: Its IC50 is 1000 to 10000 nM.

Q: Which IC50 [1] does the source give for `CN(C)CCOc1ccc(Nc2nc(N)n(C(=O)c3ccc(OC(C)(C)C)cc3)n2)cc1` [compound 83, 5-amino-3-[4-[2-(dimethylamino)ethoxy]phenylamino]-1-(4-(tert-butoxy)phenyl)carbonyl-1H-1,2,4-triazole] here?
A: Its IC50 is less than 1000 nM.

Q: `CC(C)(C)Oc1ccc(C(=O)n2nc(Nc3ccc(OCCN4CCCC4=O)cc3)nc2N)cc1` [compound 342, 5-amino-1-(4-(tert-butoxy)phenyl)carbonyl-3-[4-[2-(pyrrolidin-2-on-1-yl)ethoxy]phenylamino]-1H-1,2,4-triazole] was tested. Which IC50 [3] did it give?
A: The IC50 was less than 1000 nM.

Q: Which IC50 [2] does the source give for `CC(=O)n1nc(Nc2ccc3c(c2)OCCO3)nc1N` [compound 261, 1-Acetyl-5-amino-3-(1,4-benzodioxan-6-yl)amino-1H-1,2,4-triazole] here?
A: Its IC50 is greater than 20000 nM.

Q: How did the IC50 [4] turn out when `N#Cc1ccc(NC(=O)n2nc(Nc3ccc(OCCN4CCCCC4)cc3)nc2N)cc1` [compound 194, 5-amino-N-(4-cyanophenyl)-3-[4-[2-(piperidin-1-yl)ethoxy]phenylamino]-1H-1,2,4-triazole-1-carboxamide] was run?
A: Its IC50 is greater than 20000 nM.

Q: How did the IC50 [1] turn out when `Nc1nc(Nc2ccc3c(c2)OCCO3)nn1C(=O)c1ccc(Cl)cc1` [compound 95, 5-amino-1-(4-(chloro)phenyl)carbonyl-3-(1,4-benzodioxan-6-yl)amino-1H-1,2,4-triazole] was run?
A: Its IC50 is 1000 to 10000 nM.

Q: `Nc1nc(Nc2ccc(OCCN3CCCC3)cc2)nn1C(=O)c1ccc2c(c1)OCCO2` [compound #17, 5-Amino-1-(1,4-benzodioxan-6-yl)carbonyl-3-[4-[2-(pyrrolidin-1-yl)ethoxy]phenylamino]-1H-1,2,4-triazole] was tested. Which IC50 [3] did it give?
A: Its IC50 is less than 1000 nM.

Q: `Cc1cccc(C(=O)n2nc(Nc3ccc4c(c3)NC(=O)CO4)nc2N)c1` [compound 161, 5-amino-3-(benzo[b][1,4]oxazin-3(4H)-on-6-yl)amino-1-(3-(methyl)phenyl)carbonyl-1H-1,2,4-triazole] was tested. Which IC50 [5] did it give?
A: The IC50 was greater than 20000 nM.

Q: How did the IC50 [1] turn out when `N#Cc1ccc(C(=O)n2nc(Nc3ccc4c(c3)OCCO4)nc2N)cc1` [compound 245, 5-amino-1-(4-cyanophenyl)carbonyl-3-(1,4-benzodioxan-6-yl)amino-1H-1,2,4-triazole] was run?
A: Its IC50 is greater than 20000 nM.

Q: How did the IC50 [5] turn out when `CCOC(=O)c1cc2cc(Nc3nc(N)n(C(=O)c4cccc(C)c4)n3)ccc2o1` [compound 219, 5-amino-3-[2-(ethoxycarbonyl)benzofuran-5-yl]amino-1-(3-methylphenyl)carbonyl-1H-1,2,4-triazole] was run?
A: Its IC50 is 1000 to 10000 nM.

Q: Which IC50 [3] does the source give for `COc1cc(Nc2nc(N)n(C(=O)c3ccc(OC(C)C)cc3)n2)ccc1OCCN1CCCC1` [compound 316, 5-amino-1-(4-(iso-propoxy)phenyl)carbonyl-3-[3-methoxy-4-[2-(pyrrolidin-1-yl)ethoxy]phenylamino]-1H-1,2,4-triazole] here?
A: The IC50 was less than 1000 nM.

Q: Which IC50 [1] does the source give for `Cc1cc(C(=O)n2nc(Nc3ccc4c(c3)OCCO4)nc2N)ccc1F` [compound 242, 5-amino-3-(1,4-benzodioxan-6-yl)amino-1-[(4-fluoro-3-methyl)phenyl]carbonyl-1H-1,2,4-triazole] here?
A: The IC50 was greater than 20000 nM.

Q: For `COc1cc(Nc2nc(N)n(C(=O)c3cccc(N4CCOCC4)c3)n2)ccc1OCCN1CCCC1` [compound 344, 5-amino-1-(3-(morpholin-4-yl)phenyl)carbonyl-3-[3-methoxy-4-[2-(pyrrolidin-1-yl)ethoxy]phenylamino]-1H-1,2,4-triazole], which IC50 [3] is on record?
A: The IC50 was less than 1000 nM.

Q: How did the IC50 [3] turn out when `Cc1cc(C)cc(C(=O)n2nc(Nc3ccc4c(c3)OCCO4)nc2N)c1` [compound 239, 5-amino-3-(1,4-benzodioxan-6-yl)amino-1-(3,5-dimethylphenyl)carbonyl-1H-1,2,4-triazole] was run?
A: Its IC50 is 1000 to 10000 nM.

Q: `COc1cc(NC(=O)n2nc(Nc3ccc(OCCN4CCCC4)cc3)nc2N)cc(OC)c1` [compound 34, 5-amino-N-(3,5-(dimethoxy)phenyl)-3-[4-[2-(pyrrolidin-1-yl)ethoxy]phenylamino]-1H-1,2,4-triazole-1-carboxamide] was tested. Which IC50 [4] did it give?
A: Its IC50 is less than 1000 nM.

Q: Which IC50 [4] does the source give for `COc1cc(NC(=O)n2nc(Nc3ccc(OCCN4CCCCC4)cc3)nc2N)cc(OC)c1` [compound 33, 5-amino-N-(3,5-(dimethoxy)phenyl)-3-[4-[2-(piperidin-1-yl)ethoxy]phenylamino]-1H-1,2,4-triazole-1-carboxamide] here?
A: Its IC50 is less than 1000 nM.

Q: For `Cc1ccc(C(=O)n2nc(Nc3ccc(OCCCN(C)C)cc3)nc2N)cc1` [compound 91, 5-amino-3-[4-[3-(dimethylamino)propoxy]phenylamino]-1-(4-(methyl)phenyl)carbonyl-1H-1,2,4-triazole], which IC50 [3] is on record?
A: The IC50 was 1000 to 10000 nM.

Q: How did the IC50 [4] turn out when `Nc1nc(Nc2ccc(OCCN3CCCCC3)cc2)nn1C(=O)NC1CCCC1` [compound 45, 5-amino-N-cyclopentyl-3-[4-[2-(piperidin-1-yl)ethoxy]phenylamino]-1H-1,2,4-triazole-1-carboxamide] was run?
A: Its IC50 is 1000 to 10000 nM.

Q: Which IC50 [1] does the source give for `Cc1cccc(C(=O)n2nc(Nc3cccc(OCC(=O)OC(C)(C)C)c3)nc2N)c1` [compound 221, 5-amino-1-(3-methylphenyl)carbonyl-3-[(3-tert-butoxycarbonylmethoxy)phenyl]amino-1H-1,2,4-triazole] here?
A: The IC50 was 1000 to 10000 nM.

Q: For `CC(C)Oc1ccc(C(=O)n2nc(Nc3ccc(OCCN4CCSCC4)cc3)nc2N)cc1` [compound 60], which IC50 [1] is on record?
A: Its IC50 is less than 1000 nM.

Q: `Cc1cccc(C(=O)n2nc(Nc3cccc(OCC(=O)NCCO)c3)nc2N)c1` [compound 225, 5-amino-3-[3-((2-hydroxyethyl)aminocarbonylmethoxy)phenyl]amino-1-(3-methylphenyl)carbonyl-1H-1,2,4-triazole] was tested. Which IC50 [1] did it give?
A: Its IC50 is 1000 to 10000 nM.

Q: `Cc1cccc(C(=O)n2nc(N)nc2Nc2ccc3c(c2)N(C(=O)OC(C)(C)C)CCO3)c1` [compound 167] was tested. Which IC50 (Table 6, Hela cells, Axl antibody cross-linking stimulation, phospho-Akt chemiluminescence) did it give?
A: The IC50 was greater than 20000 nM.

Q: Which IC50 (Table 8, Hela cells, Axl antibody cross-linking stimulation, phospho-Akt chemiluminescence) does the source give for `COc1cc(NC(=O)n2nc(N)nc2Nc2ccc(OCCN3CCCCC3)cc2)cc(OC)c1` [compound 188, 3-amino-N-(3,5-dimethoxyphenyl)-5-[4-[2-(piperidin-1-yl)ethoxy]phenylamino]-1H-1,2,4-triazole-1-carboxamide] here?
A: The IC50 was 1000 to 10000 nM.

From US8389557B2, “Triazole derivatives useful as Axl inhibitors” (Rigel Pharmaceuticals, Inc., priority 2005, dated 2013)
